Data published in PMC10011747, “Targeting androgen receptor and the variants by an orally bioavailable Proteolysis Targeting Chimeras compound in castration resistant prostate cancer” (eBioMedicine, 2023).

Experiments:
Assay type in all cases: cell-based, human
[1] = test system: full-length AR; assay: AR degradation by western blot in prostate cancer cell lines; settings: 24 h treatment; LNCaP, CWR22Rv1, VCaP
Method: To obtain total lysates, cells were lysed in RIPA buffer (50 mM Tris–HCl pH 8.0, 150 mM NaCl, 1% NP-40, 0.5% Na-deoxycholate, 0.5% SDS plus protease inhibitors). The lysates were resolved by SDS-polyacrylamide gel electrophoresis, and the protein expression was analyzed by western blotting using primary antibodies against AR (Millipore Cat# 06-680, RRID:AB_310214), AR-V7 (RevMAb Biosciences Cat# 31-1109-00, RRID:AB_2716436), GAPDH (Cell Signaling Technology Cat# 2118, RRID:AB_561053) and Actin (Sigma–Aldrich Cat# A5441, RRID:AB_476744). pLenti4/TO/Flag-AR or pLenti4/TO/Flag-TC-AR plasmid was co-transfected with HA-ubiquitin plasmid into 293T cells. 24 h after transfection, the cells were treated with 10 μM of the PROTAC compounds for 16 h, followed by 4-h treatment of 5 μM MG132. The cells were lysed with lysis buffer (50 mM Tris–HCl pH7.5, 150 mM NaCl, 0. 5% Triton X-100, 10% glycerol, 1 mM EDTA plus protease inhibitors) containing 1 ng/mL of N-ethylmaleimide, followed by immunoprecipitation with anti-Flag M2 (Sigma–Aldrich Cat# F3165, RRID:AB_259529) antibody. The ubiquitinated AR was then detected by western blotting using anti-HA (Sigma–Aldrich Cat# H3663, RRID:AB_262051) antibody.
Fig. 1 PROTAC-based AR degraders ITRI-90, ITRI-125 and ITRI-126 reduce AR and AR-V7 proteins in prostate cancer cell lines. (a) Chemical structure of the PROTAC AR degraders. (b) Representative western blots of AR protein levels in LNCaP, CWR22Rv1 and VCaP cells treated with the PROTAC degraders for 24 h. AR was detected by N-terminal antibody which also detects C-terminal truncated AR-V(ΔLBD) in CWR22Rv1 cells. AR-V7 specific antibody was used for AR-V7 detection. 4%–12% gradient gel was used to separate different species of AR-V(ΔLBD) near 75 kDa in CWR22Rv1 cell lysates. DC50 indicating the concentration required to achieve 50% degradation, was calculated based on normalized full-length AR and AR-V7 band intensity. Dmax is the maximum degradation achieved at 20 μM compound treatment. TEXT PRINTED IN THE PICTURE: (a) ITRI-90: AR DC50 (μM) LNCaP: 2.12 ± 0.93; AR DC50 (μM) CWR22Rv1: 5.73 ± 2.28; AR DC50 (μM) VCaP: 8.67 ± 4.87; AR-V7 DC50 (μM) CWR22Rv1: 4.72 ± 2.52; AR-V7 DC50 (μM) VCaP: 0.29 ± 0.15; AR Dmax (%) LNCaP: 88; AR Dmax (%) CWR22Rv1: 98; AR Dmax (%) VCaP: 90; AR-V7 Dmax (%) CWR22Rv1: 100; AR-V7 Dmax (%) VCaP: 63 | (a) ITRI-125: AR DC50 (μM) LNCaP: 6.10 ± 4.43; AR DC50 (μM) CWR22Rv1: 6.64 ± 1.87; AR DC50 (μM) VCaP: 9.05 ± 3.75; AR-V7 DC50 (μM) CWR22Rv1: 1.89 ± 1.06; AR-V7 DC50 (μM) VCaP: 0.52 ± 0.37; AR Dmax (%) LNCaP: 71; AR Dmax (%) CWR22Rv1: 96; AR Dmax (%) VCaP: 85; AR-V7 Dmax (%) CWR22Rv1: 99; AR-V7 Dmax (%) VCaP: 67 | (a) ITRI-126: AR DC50 (μM) LNCaP: 3.41 ± 3.13; AR DC50 (μM) CWR22Rv1: 0.11 ± 0.02; AR DC50 (μM) VCaP: 0.851 ± 0.43; AR-V7 DC50 (μM) CWR22Rv1: 0.011 ± 0.003; AR-V7 DC50 (μM) VCaP: 0.43 ± 0.19; AR Dmax (%) LNCaP: 99; AR Dmax (%) CWR22Rv1: 74; AR Dmax (%) VCaP: 94; AR-V7 Dmax (%) CWR22Rv1: 91; AR-V7 Dmax (%) VCaP: 82

[2] = test system: AR and AR-V7 target gene expression; assay: qRT-PCR of AR and AR-V7 target genes; settings: CWR22Rv1 cells, 24 h, 5 μM
Method: TRIzol™ Reagent (Thermo Fisher Scientific) was used to isolate total RNA, and iScript™ cDNA Synthesis Kit (Bio-Rad, Hercules, CA, USA) was used for cDNA synthesis. The cDNA expression level of each gene was then quantified by the Bio-Rad CFX Real-Time PCR detection system using iTaq Universal SYBR Green Supermix (Bio-Rad) and primers listed in Table S1. All samples were tested in triplicate, and the expression levels were normalized against RPL13A and GAPDH cDNA levels using Bio-Rad CFX software.

[3] = test system: VCaP cells; assay: MTT proliferation, VCaP with enzalutamide; settings: 20 μM enzalutamide, with or without 10 μM PROTAC, up to 8 days
Method: Cells were seeded in triplicate in 96-well plates 1 day prior to drug treatment for all assays. For viability test and IC50 assessment, the alamarBlue™ Cell Viability Reagent (Thermo Fisher Scientific) was added to cells 7 days after PROTAC treatment, followed by fluorescence detection as the manufacturer instructed. The IC50 was calculated by dose-inhibition regression. For proliferation monitoring, 2, 4, 6 and 8 days after PROTAC treatment (day 0), viable cells were detected by MTT Cell Proliferation Kit I (Sigma–Aldrich) according to the manufacturer's instructions. Cellular caspase activity was measured by Caspase-Glo 3/7 Assay System (Promega) 1 or 2 days after the drug treatment.
Fig. 6 AR degraders effectively diminish enzalutamide-induced AR-V expression and inhibit enzalutamide-resistant cell growth. (a) VCaP cells were treated with 20 μM enzalutamide (Enz) for 2 days, followed by one-day treatment of mock or 10 μM PROTAC. Full-length AR and AR-V(ΔLBD) was detected by N-terminal AR antibody (top) or AR-V7 specific antibody (middle). […] Cell proliferation was detected by MTT every 2 days after PROTAC treatment, up to 8 days. […] (c) AR protein levels in C4-2B and C4-2B/Enz^R cells treated with mock or 10 μM PROTAC compounds for 1 day were detected by anti-N-terminal-AR and anti-AR-V7 antibodies. […] Cell growth was monitored by MTT every 2 days up to 8 days. […]

## Cc1ncsc1-c1ccc(CNC(=O)[C@@H]2C[C@H](O)CN2C(=O)[C@@H](NC(=O)COCCCCOc2ccc(C3CCN(C4=Nn5c(nnc5C(F)(F)F)CC4)CC3)cc2)C(C)(C)C)cc1 [ITRI-90 inactive, (2S,4S)-1-((S)-3,3-dimethyl-2-(2-(4-(4-(1-(3-(trifluoromethyl)-7,8-dihydro-[1,2,4]triazolo[4,3-b]pyridazin-6-yl)piperidin-4-yl)phenoxy)butoxy)acetamido)butanoyl)-4-hydroxy-N-(4-(4-methylthiazol-5-yl)benzyl)pyrrolidine-2-carboxamide]
[1]
  AR protein expression (negative control degraders): did not inhibit the AR protein expression

## CN1C(=O)CCC(N2Cc3c(NC(=O)COCCCCOc4ccc(C5CCN(C6=Nn7c(nnc7C(F)(F)F)CC6)CC5)cc4)cccc3C2=O)C1=O (stereo not shown) [ITRI-126 inactive, N-(2-(1-methyl-2,6-dioxopiperidin-3-yl)-1-oxoisoindolin-4-yl)-2-(4-(4-(1-(3-(trifluoromethyl)-7,8-dihydro-[1,2,4]triazolo[4,3-b]pyridazin-6-yl)piperidin-4-yl)phenoxy)butoxy)acetamide]
[1]
  AR protein expression (negative control degraders): did not inhibit the AR protein expression

## CNC(=O)c1ccc(N2C(=S)N(c3ccc(C#N)c(C(F)(F)F)c3)C(=O)C2(C)C)cc1F [enzalutamide]
[2]
  expression of AR-V7 target genes: specifically inhibited by the degraders but not enzalutamide
[3]
  VCaP proliferation (MTT): modestly inhibits VCaP proliferation
